The values that follow come from patent US20240343727A1, “PYRIDAZINONE OR PYRIDINONE COMPOUNDS, PREPARATION METHODS AND USES THEREOF” (InventisBio Co., Ltd., priority 2021, published 2024).

Assay [1] deals with NCI-H1373 cells. As to the kind of experiment: Inhibition of cancer cell growth in NCI-H1373 cells (Cell-titer Glo, 6 days). Type of assay: cell-based. To be noted: read-out: H1373 Cell Proliferation IC50. How it is done:
Biological Assay Example B: Inhibition of cancer cell growth in NCI-H1373 cells by PARP7 inhibitors
NCI-H1373 cells were cultured in RPMI 1640 medium supplemented with 10% fetal bovine serum, 100 U/mL penicillin and 100 ug/mL streptomycin in a 37° C., 5% CO2 incubator. Fifteen hundred cells were seeded into each well of 96-well plate in RPMI1640 medium containing 10% fetal bovine serum and incubated overnight. Serial diluted compounds for each well were added at a final DMSO concentration of 0.5% and a day zero plate was collected for analysis. Compounds were incubated with the cells for 6 days. Cell growth was assessed using Cell-titer Glo reagent (Promega #G^7572). The luminescence signal was collected on Tecan Spark plate reader. Cell growth is determined by correcting for the cell count on day zero. Inhibition rate is calculated with the formula of % inhibition=100*(DMSO control-compounds)/(DMSO control-Blank). Cell growth inhibition IC50 is calculated with the equation of Y-Bottom+ (Top-Bottom)/(1+10^((LogIC50−X) *Hill Slope)).

The target in assay [2] is T1, PARP7 (Homo sapiens, UniProt Q7Z3E1).
T1 sequence (Q7Z3E1 1-657): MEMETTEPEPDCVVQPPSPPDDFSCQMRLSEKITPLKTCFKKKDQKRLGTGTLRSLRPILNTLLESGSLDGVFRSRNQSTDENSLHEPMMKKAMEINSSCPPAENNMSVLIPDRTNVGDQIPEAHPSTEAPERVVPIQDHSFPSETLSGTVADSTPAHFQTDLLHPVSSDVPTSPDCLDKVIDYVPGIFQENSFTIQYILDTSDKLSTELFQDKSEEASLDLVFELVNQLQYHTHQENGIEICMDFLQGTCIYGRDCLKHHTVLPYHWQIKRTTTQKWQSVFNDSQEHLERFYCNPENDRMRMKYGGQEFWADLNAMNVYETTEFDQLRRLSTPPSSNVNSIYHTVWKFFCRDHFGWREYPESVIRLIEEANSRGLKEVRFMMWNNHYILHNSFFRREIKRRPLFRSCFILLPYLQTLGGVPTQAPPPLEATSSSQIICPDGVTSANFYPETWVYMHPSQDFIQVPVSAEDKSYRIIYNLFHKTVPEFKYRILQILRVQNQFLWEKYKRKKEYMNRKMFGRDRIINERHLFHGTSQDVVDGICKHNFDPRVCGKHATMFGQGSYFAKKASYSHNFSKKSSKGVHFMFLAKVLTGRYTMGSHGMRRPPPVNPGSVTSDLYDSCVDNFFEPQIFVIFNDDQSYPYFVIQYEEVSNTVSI
As to the kind of experiment: PARP7 TR-FRET assay (binding, displacement of biotinylated Probe A). To be noted: 6 nM PARP7, 2 nM Probe A, 25° C., 30 min. The procedure, abridged: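 Compound displacement of biotinylated Probe A (2 nM) from PARP7 (6 nM) measured by TR-FRET in HEPES pH 8.0 buffer, 30 min at 25° C. Detection used ULight-anti 6xHis (4 nM) plus Eu-streptavidin (0.25 nM) for 30 min, reading the 665/615 nm ratio. % inhibition was taken against DMSO and no-enzyme wells, and IC50 from a Hill fit.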
On the technique in general: Time-resolved FRET reads energy transfer from a long-lived donor to a nearby acceptor.

The test system of assay [3] is tumor. The settings on record: according to the description in clinicaltrials.gov (NCT04053673); cited from earlier work.

Each structure is given as a SMILES string. Read-outs that look alike come from different tables or passages of the source.

Take `O=C(CC1CN(c2cc(C(F)(F)F)c(=O)[nH]n2)c2cc(C(F)F)ccc2O1)N1CCN(c2cnc(C(F)(F)F)cn2)CC1` (single isomer, unassigned) [Compound 145]: the IC50 is under 100 nM in assay [1] (Homo sapiens, NCI-H1373, 144 h) and under 100 nM in assay [2].

With `Cn1ccc2c(=O)[nH]nc(Oc3cccc(C(=O)N4CCN(c5ncc(C(F)(F)F)cn5)CC4)c3)c21` [Compound 73], the IC50 in assay [1] (Homo sapiens, NCI-H1373, 144 h) was 100 to 1000 nM; in assay [2], under 100 nM.

For `Cc1c(N2C[C@H](CC(=O)N3CCN(c4ncc(C(F)(F)F)cn4)CC3)O[C@@H](C)C2)n[nH]c(=O)c1C(F)(F)F` (single isomer, unassigned) [Compound 42], the IC50 in assay [1] (Homo sapiens, NCI-H1373, 144 h) is over 1000 nM; in assay [2], under 100 nM.

With `C#Cc1ccc2c(c1)N(c1cc(C(F)(F)F)c(=O)[nH]n1)CC(CC(=O)N1CCN(c3ncc(C(F)(F)F)cn3)CC1)O2` (centres unmarked) [Compound 149], the IC50 is under 100 nM in assay [1] (Homo sapiens, NCI-H1373, 144 h) and under 100 nM in assay [2].

For the compound `N#Cc1ccc2c(c1)N(c1cc(C(F)(F)F)c(=O)[nH]n1)CC(CC(=O)N1CCN(c3ncc(Cl)cn3)CC1)O2` (single isomer, unassigned) [Compound 216], the IC50 in assay [1] (Homo sapiens, NCI-H1373, 144 h) is under 100 nM; in assay [2] it was under 100 nM.

As for `CCOC1CN(c2c(Oc3ccnc(C(=O)N4CCN(c5ncc(C(F)(F)F)cn5)[C@H](C)C4)c3)n[nH]c(=O)c2C(F)(F)F)C1` [Compound 339], the IC50 in assay [1] (Homo sapiens, NCI-H1373, 144 h) is under 100 nM; in assay [2] it was under 100 nM.

With `N#Cc1ccc(N2CCN(C(=O)c3cccc(Oc4n[nH]c(=O)c(C(F)(F)F)c4N4CC5(CCCO5)C4)c3)CC2)nc1` [Compound 223], the IC50 in assay [1] (Homo sapiens, NCI-H1373, 144 h) was 100 to 1000 nM; in assay [2], under 100 nM.

For the compound `O=C(c1cncc(Oc2n[nH]c(=O)c(C(F)(F)F)c2N2CC(C3CC3)C2)c1)N1CCN(c2ncc(Cl)cn2)CC1` [Compound 280], the IC50 was 100 to 1000 nM in assay [1] (Homo sapiens, NCI-H1373, 144 h) and under 100 nM in assay [2].

As for `O=C(c1cccc(Oc2n[nH]c(=O)c(C(F)(F)F)c2N2CC3(CCC3)C2)c1)N1CCN(c2cnc(C(F)(F)F)cn2)CC1` [Compound 188], the IC50 in assay [1] (Homo sapiens, NCI-H1373, 144 h) is under 100 nM; in assay [2], under 100 nM.

With `Cc1c(Oc2cccc(C(=O)N3CCN(c4ccc(C#N)cn4)CC3)c2)n[nH]c(=O)c1C(F)(F)F` [Compound 27], the IC50 in assay [1] (Homo sapiens, NCI-H1373, 144 h) was 100 to 1000 nM; in assay [2], under 100 nM.

Take `Cc1c(Oc2cccc(C(=O)N3CCN(c4ncc(C(F)(F)F)cn4)CC3)c2)n[nH]c(=O)c1C(F)(F)F` [Compound 15]: the IC50 in assay [1] (Homo sapiens, NCI-H1373, 144 h) was 100 to 1000 nM; in assay [2] it was under 100 nM.

Turning to `O=C(CC1CN(c2cc(C(F)(F)F)c(=O)[nH]n2)c2cc(F)ccc2O1)N1CCN(c2cnc(C(F)(F)F)cn2)CC1` (single isomer, unassigned) [Compound 291], the IC50 was 100 to 1000 nM in assay [1] (Homo sapiens, NCI-H1373, 144 h) and under 100 nM in assay [2].

For the compound `O=C(CC1CN(c2cc(C(F)(F)F)c(=O)[nH]n2)c2cc(C(=O)N3CCC3)ccc2O1)N1CCN(c2ncc(C(F)(F)F)cn2)CC1` (single isomer, unassigned) [Compound 336], the IC50 in assay [1] and in assay [2] was under 100 nM throughout.

`O=C(COC1CCNc2c1n[nH]c(=O)c2C(F)(F)F)N1CCN(c2ncc(C(F)(F)F)cn2)CC1` (racemic) [Compound 1]: the IC50 is 100 to 1000 nM in assay [1] (Homo sapiens, NCI-H1373, 144 h) and under 100 nM in assay [2].

On to `C[C@@H]1CN(C(=O)c2cccc(Oc3n[nH]c(=O)c(C(F)(F)F)c3N3CC4(CCO4)C3)c2)CCN1c1ncc(C(F)(F)F)cn1` [Compound 252], for which the IC50 in assay [1] (Homo sapiens, NCI-H1373, 144 h) is under 100 nM; in assay [2], under 100 nM.

In the case of `O=C(CC1CN(c2n[nH]c(=O)c3ccccc23)CCO1)N1CCN(c2ncc(C(F)(F)F)cn2)CC1` (single isomer, unassigned) [Compound 92], the IC50 in assay [1] (Homo sapiens, NCI-H1373, 144 h) is 100 to 1000 nM; in assay [2] it was under 100 nM.

`COCc1ccc2c(c1)N(c1cc(C(F)(F)F)c(=O)[nH]n1)CC(CC(=O)N1CCN(c3ncc(C(F)(F)F)cn3)CC1)O2` (single isomer, unassigned) [Compound 266]: the IC50 in assay [1] (Homo sapiens, NCI-H1373, 144 h) is under 100 nM; in assay [2], under 100 nM.

Regarding `Cc1c(N2CCOC(CC(=O)N3CCN(c4ncc(C(F)(F)F)cn4)CC3)C2)n[nH]c(=O)c1C(F)(F)F` (single isomer, unassigned) [Compound 39], the IC50 in assay [1] (Homo sapiens, NCI-H1373, 144 h) is 100 to 1000 nM; in assay [2], under 100 nM.

With `Cc1cccc2c(N3CCOC(CC(=O)N4CCN(c5ncc(C(F)(F)F)cn5)CC4)C3)n[nH]c(=O)c12` (single isomer, unassigned) [Compound 101], the IC50 is over 1000 nM in assay [1] (Homo sapiens, NCI-H1373, 144 h) and 100 to 1000 nM in assay [2].

Turning to `Cc1c(Oc2ccnc(C(=O)N3CCN(c4ncc(C(F)(F)F)cn4)CC3)c2)n[nH]c(=O)c1C(F)(F)F` [Compound 21], the IC50 is 100 to 1000 nM in assay [1] (Homo sapiens, NCI-H1373, 144 h) and under 100 nM in assay [2].

In the case of `C[C@@H](COCCC(=O)N1CCN(c2ncc(C(F)(F)F)cn2)CC1)Nc1cn[nH]c(=O)c1C(F)(F)F` [RBN2397], the “tumor growth in animal studies” value in assay [3] is “inhibit tumor growth”.

Regarding `O=C(c1cccc(Oc2n[nH]c(=O)c(C(F)(F)F)c2CO)c1)N1CCN(c2ncc(C(F)(F)F)cn2)CC1` [Compound 71], the IC50 is over 1000 nM in assay [1] (Homo sapiens, NCI-H1373, 144 h) and 100 to 1000 nM in assay [2].

On to `O=C(CC1CN(c2cc(C(F)(F)F)c(=O)[nH]n2)c2cc(C(=O)N3CCC3)ccc2O1)N1CCN(c2ncc(C(F)(F)F)cn2)CC1` (single isomer, unassigned) [Compound 337], for which the IC50 in assay [1] is over 1000 nM; in assay [2], under 100 nM.

In the case of `N#Cc1ccc2c(c1)N(c1cc(C(F)(F)F)c(=O)[nH]n1)CC(CC(=O)N1CCN(c3ccc(C(F)(F)F)cn3)CC1)O2` (single isomer, unassigned) [Compound 346], the IC50 in assay [1] (Homo sapiens, NCI-H1373, 144 h) is over 1000 nM; in assay [2] it was under 100 nM.
